Positions count from the first letter of the chain named. Where “and” joins values, the source holds several entries; their conditions need not be identical. Identical values can stand only once. Entries after “also recorded” stand apart in the source; their conditions may differ.
Tests used:
N79 rz = assay: microbe, parasite or virus in culture; format: cell-based, Schistosoma mansoni; conditions: for EC50 / maximal fold induction / Foldmax: inhibition of ribozyme activity in cells; for maximal fold induction: read-out: Foldmax; for luciferase protein expression / induced gene expression: double N79 rz; for luciferase activity, emission: untreated 1,555, background 121
double functional N79 rz = assay: In vivo induction of luciferase in retina injected with AAV carrying double N79 rz, bioluminescent imaging; parameters: species or system nude mice; conditions: for luciferase expression in retina: mice with AAV carrying double functional N79, drug pellet, day 2
Experimental: FIG. 4 show effective control of gene expression in vivo using rz-based gene regulation system. […] AAV injection was done 3 weeks prior to the first imaging day (day 0). Drug-releasing pellets were implanted subcutaneously in the dorsal neck immediately after the first imaging, and released the drug over 7 days. The toyocamycin pellet contains 10 μg of drug; adenosine pellet 50 μg.
Having documented the ability of the rz-based regulation system to function in mammalian cell culture, a final important issue to be addressed was whether the intracellular machinery and ‘environment’ necessary for self-cleavage was operable in primary cells in vivo. […] After 21 days, the injected animals were imaged for luciferase gene expression using the Xenogen IVIS imager, which provides a quantitative measure ofluciferase expression based on single-photon detection (Contag, et al., 1998, Nat Med 4, 245-7). […] Two days later, all animals were then imaged for luciferase expression. […] Quantification of the photon output indicated gene expression was ‘induced’ 39, 185, and 191-fold in the three mice infected with virus carrying the functional rzs and treated with toyocamycin. […] While the retina may be particularly accessible to ‘inducer’ due to its extensive vascularization, Applicants have shown in preliminary experiments that gene regulation can be accomplished at a number of other anatomical sites in vivo (e.g., muscle and ear).
Prior to imaging, the anesthetized mice were injected with 150 μl of luciferin (30 mg/ml) and the pupils were moistened and dilated with 1% tropicamide. A series of bioluminescent images were taken for up to 30 minutes using the Xenogen IVIS imager. Photon output was quantified at the plateau of the time course using the LivingImage software. Induction in fold was calculated based on the photon output in the retina before and after drug treatment, and was normalized to the photon output from the leg muscles. Adenosine was purchased from Innovative Research of America.

293 cells = assay: Transient transfection LacZ reporter assay of ribozyme self-cleavage; format: cell-based; conditions: for Fold (suppression in reporter gene expression relative to the vector with inactive rz): pMD LacZ vector, functional vs inactive rz, fold=1 means no effect
Source text: The approach is critically dependent upon both the ability of a specific self-cleaving ribozyme (rz) to effect the highly efficient cleavage (>99%) of an mRNA molecule into which it is embedded, and the availability of a small molecule capable of efficiently inhibiting self-cleavage of the cis-acting rz within an intracellular milieu. A first step in our studies was to identify candidate rz sequences capable of efficient cleavage in mammalian cells in the context of an ‘expression’ vector. For this purpose, Applicantsmade use of a transient transfection assay involving a standard mammalian expression vector (Ory, et al., 1996, Proc Natl Acad Sci USA 93, 11400-6) which encodes a LacZ reporter (FIG. 1b). […] After transfection of 293 cells with these vectors, protein extracts were prepared from cells and the β-gal level quantified.
1.5 μl Fugene-6 (Roche, Basel, Switzerland) was diluted in 100 μl OPTIMEM (Gibco, Carlsbad, Calif.) and incubated for 5 minutes at room temperature. This solution was added dropwise to 0.45 μg plasmid DNA and incubated for 15 minutes. The plasmid DNA contains either a wildtype or a mutant ribozyme and a Lacz reporter gene. The DNA mixture was then added dropwise to 3×10^5 HEK 293 cells (plated the previous day in a 35 mm dish). Cells were harvested for β-galactosidase assay 24 hours following transfection.
Plasmids carrying different ribozymes were transfected into HEK293T cells and lysed 24 h later. The cell extracts were incubated with ONPG, and the amount of B-galactosidase in cell extracts was measured by quantifying the processed ONPG using a luminometer.
Cleaving activity was determined by comparing the level of −galactosidase measured in the test sample to a control comprising a point mutation (A-+G) at position 14 which attenuates ribozyme activity. Briefly, transfected HEK293 cells were lysed with a lysis solution and the extracts of cells were separated from cell debris. The extracts were then incubated with ONPG, a chromogenic substrate of β-galactosidase. […] The intensity of yellow light emission was measured with a luminometer (Miller J., Experiments in Molecular Genetics, Cold Spring Harbor Laboratory, Cold Spring Harbor, N.Y. (1972)).

[1] = test system: self-cleavage of full length ribozymes; assay: Catalytic rate measurement of in vitro transcribed ribozymes; format: biochemical; conditions: 50 mM Tris-HCl pH7.5, 23° C.
Experimental: Ribozymes were generated by in vitro transcription in the presence of 50 uM blocking antisense oligos. Full length ribozymes were purified and the cleavage rate determined in 50 mM Tris-HCI, pH7.5 at 23° C. Kobs was calculated according to the equation F1=F0+F∞(l−e^kt).

[2] = test system: a variety of other commonly used cell lines; assay: Transfection of N79 rz vector into other cell lines; format: cell-based; conditions: after transfection
Source text: (a) and (b) N79 functioned efficiently in a variety of cell types. Numbers are the measurements of β-gal expressed. (c) N79 functioned efficiently at some but not all positions within the vector. […] The ±signs indicate standard deviation from mean of at least four independent measurements.
In addition, the N79 rz was able to function efficiently when placed within other transcriptional units which made use of different promoters and a different reporter gene (eGFP) (FIG. 2b). As Applicants had observed in the primary screen of different rz motifs for activity in mammalian cells, N79 was able to function when placed in several, but not all locations of the pMD transcriptional unit, albeit at different efficiencies (FIG. 2c). Importantly, placement of two rz sequences in tandem, in some cases (e.g., E position) led to a dramatic suppression of reporter gene expression (FIG. 2c).

[3] = rz inserted at position A of pMD vector

O=c1[nH]c(=O)n([C@@H]2O[C@H](CO)[C@@H](O)[C@H]2O)cc1Br [5-BromoUridine]
EC50 (N79 rz; Schistosoma mansoni): 267 µM
maximal fold induction (N79 rz; Schistosoma mansoni): 16

O=c1[nH]cc(F)c(=O)[nH]1 [5-FluoroUracil]
EC50 (N79 rz; Schistosoma mansoni): 200 µM
maximal fold induction (N79 rz; Schistosoma mansoni): 377
luciferase protein expression / induced gene expression (N79 rz; stable cell line): induced gene expression

O=c1[nH]c(=O)n([C@@H]2O[C@H](CO)[C@@H](O)[C@H]2O)cc1F [5-FluoroUridine]
EC50 (N79 rz; Schistosoma mansoni): 5.9 µM
maximal fold induction (N79 rz; Schistosoma mansoni): 120
luciferase protein expression / induced gene expression (N79 rz; stable cell line): induced gene expression

Nc1ncnc2c1nnn2[C@@H]1O[C@H](CO)[C@@H](O)[C@H]1O [8-Azaadenosine]
EC50 (N79 rz; Schistosoma mansoni): 4 µM
maximal fold induction (N79 rz; Schistosoma mansoni): 45

CN(C)c1ccc2cc3ccc(N(C)C)cc3nc2c1 [Acridine orange]
EC50 (N79 rz; Schistosoma mansoni): 7 µM
maximal fold induction (N79 rz; Schistosoma mansoni): 4

CC[n+]1c(-c2ccccc2)c2cc(N)ccc2c2ccc(N)cc21 [Homidium bromide]
EC50 (N79 rz; Schistosoma mansoni): 2 µM
maximal fold induction (N79 rz; Schistosoma mansoni): 8

OC[C@H]1O[C@@H](n2cnc3cncnc32)[C@H](O)[C@@H]1O [Nebularine]
EC50 (N79 rz; Schistosoma mansoni): 10 µM
maximal fold induction (N79 rz; Schistosoma mansoni): 8

NC(=O)c1cn([C@@H]2O[C@H](CO)[C@@H](O)[C@H]2O)c2ncnc(N)c12 [Sangivamycin]
EC50 (N79 rz; Schistosoma mansoni): 1 µM
maximal fold induction (N79 rz; Schistosoma mansoni): 38

N#Cc1cn([C@@H]2O[C@H](CO)[C@@H](O)[C@H]2O)c2ncnc(N)c12 [Toyocamycin]
luciferase activity, emission (N79 rz; 0.5 μM, 24 hours): 66,774 photons per second per 1000 cells
luciferase activity, emission (N79 rz; 1 μM, 24 hours): 242,546 photons per second per 1000 cells
luciferase activity, emission (N79 rz; 1.5 μM, 24 hours): 377,655 photons per second per 1000 cells
EC50 (N79 rz; Schistosoma mansoni): 0.4 µM
maximal fold induction (N79 rz; Schistosoma mansoni): 365
amount of luciferase mRNA (N79 rz; northern blot, nucleus and cytoplasm, 24 hours of treatment): increased to a level comparable to that of cells carrying inactive rz
concentrations at which toxic effects were observed (N79 rz; stable cell line, 24 hours): higher than 1.5 μM
luciferase protein expression / induced gene expression (N79 rz; stable cell line): dramatic increase
induced gene expression level relative to virus carrying inactive rzs (double functional N79 rz; animal showing 191-fold induction): ≤ 40%
gene expression 'induced', photon output in retina (double functional N79 rz; individual mice, functional rzs, 10 μg pellet subcutaneous, day 2, normalized to leg muscles): 39 fold and 185 fold and 191 fold
luciferase expression in retina (double functional N79 rz): readily detectable expression; also recorded: strong induction

Nc1ncnc2c1ccn2[C@@H]1O[C@@H]2COP(=O)(O)O[C@H]2[C@H]1O [Tubercidin-cyclic monophosphate]
EC50 (N79 rz): 34 µM
Foldmax (N79 rz): 35 fold

Nc1ncnc2c1ccn2[C@@H]1O[C@H](COP(=O)(O)O)[C@@H](O)[C@H]1O [Tubercidin-monophosphate]
EC50 (N79 rz): 2 µM
Foldmax (N79 rz): 39 fold

Nc1ncnc2c1ccn2[C@@H]1O[C@H](COP(=O)(O)OP(=O)(O)OP(=O)(O)O)[C@@H](O)[C@H]1O [Tubercidin-triphosphate]
EC50 (N79 rz; Schistosoma mansoni): 2 µM
maximal fold induction (N79 rz; Schistosoma mansoni): 35

Nc1ncnc2c1ccn2[C@@H]1O[C@H](CO)[C@@H](O)[C@H]1O [Tubercidin]
EC50 (N79 rz; Schistosoma mansoni): 2.5 µM
maximal fold induction (N79 rz; Schistosoma mansoni): 58

Nc1ncnc2c1ncn2[C@@H]1O[C@H](CO)[C@@H](O)[C@H]1O [adenosine]
ability to inhibit rz self-cleavage (N79 rz): no ability
luciferase expression in retina (double functional N79 rz): little if any gene expression

N94: N79 with shortened stem I, SEQ ID NO: 8 (CCAGCUGAUGAGUCCCAAAUAGGACGAAACGCGCUUCGGUGCGUCCUGG; expressed or natural sequence)
cleavage activity, fold difference between functional and inactive rz (293 cells; rz at position E of pMD vector): vastly reduced

B1: Cricket hammerhead: hammerhead Pst-3 rz from the Dolichopoda cave cricket, SEQ ID NO: 1 (nucleic acid)
chain: AUGUGUGUUCCCUCUGCCCCGCUGAUGAGGUCGGGGAGACCGAAAGGGUCAACUCUACGGGGCUAUUACAUGCAAU
modifications: expressed or natural sequence
Fold (suppression in reporter gene expression relative to the vector with inactive rz) (293 cells): 13 fold
cleavage activity, fold difference between functional and inactive rz (293 cells; [3]): 13 fold

B2: N27: Sml with tetraloop 5′-UUCG-3′ grafted onto extended stem III, SEQ ID NO: 3 (nucleic acid)
chain: CUGAGAUGCAGGUACAUCCAGCUGACGAGUCCCAAAUAGGACGAAACGCCUUCGGGCGUCCUGGAUUCCACUGCUAUCCAC
modifications: expressed or natural sequence
Fold (suppression in reporter gene expression relative to the vector with inactive rz) (293 cells): 19 fold
cleavage activity, fold difference between functional and inactive rz (293 cells; [3]): 19 fold

B3: N79: N73 ribozyme transferred to position E of the vector, SEQ ID NO: 5 (nucleic acid)
chain: CUGAGAUGCAGGUACAUCCAGCUGAUGAGUCCCAAAUAGGACGAAACGCGCUUCGGUGCGUCCUGGAUUCCACUGCUAUCCAC
cleavage activity, fold difference between functional and inactive rz (293 cells; rz at position E of pMD vector): 225 fold
Kobs ([1]; 0.5 mM Mg++): 0.84 ^−min
Kobs ([1]; 10 mM Mg++): 0.84 ^−min
B-gal expression [2]: dramatically reduced

B4: Schisto hammerhead: original hammerhead Sml rz of Schistosoma mansoni lacking loop III, SEQ ID NO: 2 (nucleic acid)
chain: CUGAGAUGCAGGUACAUCCAGCUGACGAGUCCCAAAUAGGACGAAACGCGCGUCCUGGAUUCCACUGCUAUCCAC
modifications: expressed or natural sequence
Fold (suppression in reporter gene expression relative to the vector with inactive rz) (293 cells): 1 fold
cleavage activity, fold difference between functional and inactive rz (293 cells; [3]): no activity

B5: N99: N79 with changes in stem I near the core, SEQ ID NO: 6 (nucleic acid)
chain: B3 chain with A20C, G21A, C63U, U64G
modifications: expressed or natural sequence
cleavage activity, fold difference between functional and inactive rz (293 cells; rz at position E of pMD vector): further enhanced activity

B6: N117: N79 variant changed near the restriction insertion site, SEQ ID NO: 6 (nucleic acid)
chain: B3 chain with A20C, G21A, C63U, U64G
modifications: expressed or natural sequence
cleavage activity, fold difference between functional and inactive rz (293 cells; rz at position E of pMD vector): further enhanced activity

B7: N93: N79 with shortened stem I, SEQ ID NO: 7 (nucleic acid)
chain: AGGUACAUCCAGCUGAUGAGUCCCAAAUAGGACGAAACGCGCUUCGGUGCGUCCUGGAUUCCACU
modifications: expressed or natural sequence
cleavage activity, fold difference between functional and inactive rz (293 cells; rz at position E of pMD vector): vastly reduced

B8: TRSV hammerhead: naturally occurring ribozyme, SEQ ID NO: 53 (nucleic acid)
chain: AUACCCUGUCACCGGAUGUGCUUUCCGGUCUGAUGAGUCCGUGAGGACGAAACAGGACUGUC
modifications: expressed or natural sequence
Fold (suppression in reporter gene expression relative to the vector with inactive rz) (293 cells): 1 fold
